Test results published in patent US20250042886A1, “BIS(HETERO)ARYL THIOETHER OXADIAZINES AS FUNGICIDAL COMPOUNDS” (Bayer Aktiengesellschaft, priority 2021, published 2025).

What was measured:
[1] = Measurement of Log P values by HPLC on reversed phase columns (EEC directive 79/831 Annex V.A8); type: physicochemical; settings: method [a]: LC-UV, acidic range, 0.1% formic acid in water and acetonitrile
Botrytis cinerea = Botrytis cinerea in vitro cell test; type: cell-based; settings: 144 h, 50 μMol/l of active ingredient, liquid culture, 6 days incubation, read-out: efficacy (inhibition of fungal growth)
Protocol: B-9. Botrytis cinerea In Vitro Cell Test • Solvent: DMSO • Culture medium: 1 g KH2PO4 (VWR), 1 g K2HPO4 (VWR), 0.5 g Urea (VWR), 3 g KNO3 (Prolabo), 10 g saccharose (VWR), 0.5 g MgSO4, 7H2O (Sigma), 0.07 g CaCl2, 2H2O (Prolabo), 0.2 mg MnSO4, H2O (Sigma), 0.6 mg CuSO4, 5H2O (Sigma), 7.9 mg ZnSO4, 7H2O (Sigma), 0.1 mg H3BO3 (Merck), 0.14 mg NaMoO4, 2H2O (Sigma), 2 mg thiamine (Sigma), 0.1 mg biotine (VWR), 4 mg FeSO4, 7H2O (Sigma), QSP 1 liter • Inoculum: spore suspension Fungicides were solubilized in DMSO and the solution used to prepare the required range of concentrations. […] A spore suspension of B. cinerea was prepared and diluted to the desired spore density. Fungicides were evaluated for their ability to inhibit spore germination and mycelium growth in liquid culture assay. The compounds were added in the desired concentration to the culture medium with spores. After 6 days incubation, fungi-toxicity of compounds was determined by spectrometric measurement of mycelium growth. Inhibition of fungal growth was determined by comparing the absorbance values in wells containing the fungicides with the absorbance in control wells without fungicides.

[2] = Table 1, compounds of formula (I)
[3] = Table 3, intermediates of formula (27)

Compound	chromatographic logP [1, 2]	other results
NC(=NO)c1c(Br)nnc2ccccc12 [Compound 29-02]		chromatographic logP ([1]; Table 4, intermediates of formula (29)): 0.31
Cc1ccc([C@@H]2CON=C(c3c(Sc4ccc(OC(F)(F)F)cc4)nnc(C)c3C)N2)s1 (racemic) [Compound I-116]	3.52	
Cc1cc([C@H]2CON=C(c3c(Sc4ccc(Cl)cc4)nnc(C)c3C)N2)c(C)s1 (racemic) [Compound I-134]	3.49	
Cc1ccc([C@H]2CON=C(c3c(Sc4cccc5ccccc45)nnc(C)c3C)N2)s1 (racemic) [Compound I-092]	3.3	
C=CCON=C(N)c1c(Br)nnc2ccccc12 [Compound 27-02]		chromatographic logP [1, 3]: 1.81
Cc1ccc(C)c(Sc2nnc3ccccc3c2C2=NOC[C@H](c3ccc(C)s3)N2)c1 (racemic) [Compound I-123]	3.8	
Cc1ccc(Sc2nnc(C)c(C)c2C2=NOC[C@@H](c3ccc(C)s3)N2)cc1 (racemic) [Compound I-094]	3.01	
Cc1ccc([C@@H]2CON=C(c3c(Sc4ccc(C(C)(C)C)cc4)nnc(C)c3C)N2)s1 (racemic) [Compound I-065]	3.95	
Cc1ccc([C@@H]2CON=C(c3c(Sc4ccc(F)cc4)nnc(C)c3C)N2)s1 (racemic) [Compound I-063]	2.82	inhibition at 50 µM (Botrytis cinerea): 70 to 79%
Cc1ccc([C@H]2CON=C(c3c(Sc4cc(Cl)ccc4Cl)nnc4ccccc34)N2)s1 (racemic) [Compound I-096]	3.88	
Cc1ccc([C@H]2CON=C(c3c(Sc4ccc(C)c(C)c4)nnc(C)c3C)N2)s1 (racemic) [Compound I-093]	3.26	inhibition at 50 µM (Botrytis cinerea): 90 to 100%
Cc1cc([C@@H]2CON=C(c3c(Sc4ccc(F)cc4F)nnc(C)c3C)N2)c(C)s1 (racemic) [Compound I-051]	3.32	
Cc1cc([C@@H]2CON=C(c3c(Sc4ccc(F)cc4)nnc(C)c3C)N2)c(C)s1 (racemic) [Compound I-081]	3.18	
Cc1ccc([C@H]2CON=C(c3c(Sc4ccncc4)nnc(C)c3C)N2)s1 (racemic) [Compound I-072]	1.3	
Cc1ccc([C@@H]2CON=C(c3c(Sc4ccc(Cl)cc4Cl)nnc(C)c3C)N2)s1 (racemic) [Compound I-075]	3.45	
Cc1ccc([C@H]2CON=C(c3c(Sc4ccc5ccccc5c4)nnc4ccccc34)N2)s1 (racemic) [Compound I-098]	3.81	
Cc1cc([C@H]2CON=C(c3c(Sc4ccc(Cl)c(Cl)c4)nnc(C)c3C)N2)c(C)s1 (racemic) [Compound I-107]	3.92	inhibition at 50 µM (Botrytis cinerea): 80 to 89%
Cc1cc([C@@H]2CON=C(c3c(Sc4ccc(C(F)(F)F)cc4)nnc(C)c3C)N2)c(C)s1 (racemic) [Compound I-076]	3.71	
Cc1ccc(Sc2nnc3ccccc3c2C2=NOC[C@H](c3ccc(C)s3)N2)c(C)c1 (racemic) [Compound I-052]	3.83	
Cc1cc([C@H]2CON=C(c3c(Sc4cc(Cl)cc(Cl)c4)nnc(C)c3C)N2)c(C)s1 (racemic) [Compound I-061]	4.04	inhibition at 50 µM (Botrytis cinerea): 70 to 79%
COc1ccc(Sc2nnc3ccccc3c2C2=NOC[C@H](c3ccc(C)s3)N2)cc1 (racemic) [Compound I-077]	3.22	
Cc1ccc([C@H]2CON=C(c3c(Sc4ccccc4Cl)nnc(C)c3C)N2)s1 (racemic) [Compound I-114]	2.93	inhibition at 50 µM (Botrytis cinerea): 90 to 100%
Cc1ccc(Sc2nnc(C)c(C)c2C2=NOC[C@@H](c3cc(C)sc3C)N2)c(C)c1 (racemic) [Compound I-087]	3.68	inhibition at 50 µM (Botrytis cinerea): 70 to 79%

Compound	chromatographic logP [1, 2]	other results
Cc1ccc([C@H]2CON=C(c3c(Sc4cc(Cl)cc(Cl)c4)nnc4ccccc34)N2)s1 (racemic) [Compound I-120]	4.18	
Cc1ccc(C)c(Sc2nnc(C)c(C)c2C2=NOC[C@H](c3ccc(C)s3)N2)c1 (racemic) [Compound I-043]	3.28	
Cc1ccc(Sc2nnc3ccccc3c2C2=NOC[C@H](c3ccc(C)s3)N2)cc1 (racemic) [Compound I-101]	3.49	
Cc1ccc([C@@H]2CON=C(c3c(Sc4ccc(C(F)(F)F)cc4)nnc(C)c3C)N2)s1 (racemic) [Compound I-128]	3.36	
Cc1ccc([C@H]2CON=C(c3c(Sc4ccc(Cl)cc4)nnc(C)c3C)N2)s1 (racemic) [Compound I-064]	3.14	
Cc1cc([C@@H]2CON=C(c3c(Sc4ccc(Cl)cc4Cl)nnc(C)c3C)N2)c(C)s1 (racemic) [Compound I-039]	3.87	
Cc1ccc([C@H]2CON=C(c3c(Sc4cc(Cl)ccc4Cl)nnc(C)c3C)N2)s1 (racemic) [Compound I-053]	3.4	
FC(F)(F)Oc1cccc(Sc2nnc(Cl)cc2C2=NOC[C@H](Cc3ccc(Cl)cc3Cl)N2)c1 (racemic) [Compound I-019]	4.99	
Cc1cc([C@H]2CON=C(c3c(Sc4ccncc4)nnc(C)c3C)N2)c(C)s1 (racemic) [Compound I-041]	1.58	
Cc1ccc([C@H]2CON=C(c3c(Sc4ccc(OC(F)(F)F)cc4)nnc4ccccc34)N2)s1 (racemic) [Compound I-112]	3.96	inhibition at 50 µM (Botrytis cinerea): 70 to 79%
Cc1ccc(C)c(Sc2nnc(C)c(C)c2C2=NOC[C@H](c3cc(C)sc3C)N2)c1 (racemic) [Compound I-057]	3.66	
Cc1cc([C@@H]2CON=C(c3c(Sc4ccc(C(C)(C)C)cc4)nnc(C)c3C)N2)c(C)s1 (racemic) [Compound I-132]	4.32	
Cc1ccc([C@H]2CON=C(c3c(Sc4cc(Cl)cc(Cl)c4)nnc(C)c3C)N2)s1 (racemic) [Compound I-115]	3.68	inhibition at 50 µM (Botrytis cinerea): 90 to 100%
Cc1ccc([C@H]2CON=C(c3c(Sc4ccc(C(F)(F)F)cc4)nnc4ccccc34)N2)s1 (racemic) [Compound I-130]	3.81	inhibition at 50 µM (Botrytis cinerea): 70 to 79%
Cc1ccc([C@H]2CON=C(c3c(Sc4ccc(Cl)c(Cl)c4)nnc(C)c3C)N2)s1 (racemic) [Compound I-137]	3.55	inhibition at 50 µM (Botrytis cinerea): 90 to 100%
Cc1ccc([C@H]2CON=C(c3c(Sc4ccccn4)nnc(C)c3C)N2)s1 (racemic) [Compound I-105]	2.03	
Cc1cc([C@H]2CON=C(c3c(Sc4cccc5ccccc45)nnc(C)c3C)N2)c(C)s1 (racemic) [Compound I-037]	3.67	
Cc1ccc([C@@H]2CON=C(c3c(Sc4ccc5ccccc5c4)nnc(C)c3C)N2)s1 (racemic) [Compound I-138]	3.33	
Cc1ccc([C@H]2CON=C(c3c(Sc4ccc(C(C)(C)C)cc4)nnc4ccccc34)N2)s1 (racemic) [Compound I-113]	4.43	
Cc1ccc([C@H]2CON=C(c3c(Sc4ccc(Cl)cc4)nnc4ccccc34)N2)s1 (racemic) [Compound I-070]	3.62	
C=CCON=C(N)c1c(Br)nnc(C)c1C [Compound 27-01]		chromatographic logP [1, 3]: 1.28
COc1ccc(Sc2nnc(C)c(C)c2C2=NOC[C@@H](c3ccc(C)s3)N2)cc1 (racemic) [Compound I-054]	2.76	
Cc1ccc([C@H]2CON=C(c3c(Sc4ccc(Cl)cc4Cl)nnc4ccccc34)N2)s1 (racemic) [Compound I-058]	3.96	
